Results from patent US6867305B2, “Synthesis of epothilones, intermediates thereto and analogues thereof” (Sloan-Kettering Institute for Cancer Research, priority 1996, dated 2005).
≈ marks a conversion by molar mass, not a printed value. Where “and” joins values, the source holds several entries; their conditions need not be identical. Equal values may be shown once. Entries after “also recorded” stand apart in the source; their conditions may differ. Read-outs that look alike come from different tables or passages of the source.

Assays:
[1] = system: K562 chronic myelocytic leukemia xenograft; assay: Human tumor xenograft in nude mice; type: in vivo; conditions: for Lowest Average Tumor Size (T/C) / Tumor Disappearance: Taxol 20 mg/kg, Q2Dx5, 6-hr i.v. infusion
Protocol: FIG. 34 depicts tumor size in nude mice bearing human leukemia […] tumor following 6 mg/kg C-15-Aza-EpoB, Q2D×6 and 30 mg/kg dEpoF, Q2ED×6 (i.v. infusion […].). K562 tumor cells (1×10^7 in 0.2 mL) were inoculated to nude mice on day 0. Mice were treated with 6 mg/kg aza-EpoB, 6 h-i.v. infusion on days 20, 22, 24, 26, 28 and 30 (Δ, n=3). The same group of mice were then treated with 30 mg/kg dEpoF, 6 h-i.v. infusion on days 42, 44, 46, 48, 52, and 54 (Δ, n=3). […] The control mice (∘, n=3) received vehicle only.
K562 tumor cells (1×10^7, in 0.2 ml/mouse) were implanted s.c. on day 0. […] The control mice (∘, n=4) received vehicle, Cremophor-ethanol (1:1), only. The vertical bars indicate mean tumor size in mm^3±S.E.
(§1) Depending on the tumor type, treatment started on day 10 to day 21 when subcutaneous tumor size reached 35-200 mm^3, except otherwise indicated. Tumor size and body-weight were recorded every other day (Q2D) and, for humane reasons, the animals were sacrificed when tumor size reached ≧10% of body-weight. Each group, including untreated control, consisted of 3-5 animals unless otherwise indicated.
Athymic nude mice bearing the nu/nu gene were used for all human tumor xenografts. Outbred, Swiss-background mice were obtained from Charles River Laboratories. Male mice 8 weeks or older weighing 22 g and up were used for most experiments. The drug was administered via the tail vein for 6 hr.-i.v. infusion. Each individual mouse was confined in a perforated Falcon polypropylene tube restrainer for drug administration. Tumor volume was assessed by measuring length×width×height (or width) using a caliper. The programmable Harvard PHD2000 syringe pump (Harvard Apparatus) with multi-track was used for i.v. infusion. […] All animal studies were conducted in accordance with the guidelines of the National Institutes of Health “Guide for the Care and Use of Animals” and the protocol approved by the Memorial Sloan-Kettering Cancer Center's Institutional Animal Care and Use Committee. In keeping with the policy of this committee for the humane treatment of tumor-bearing animals, mice were euthanized when tumors reached ≧10% of their total body weight.
(§2) Human tumor cells (5×10^6) or tumor tissue (30-50 mg) were implanted s.c. flank in nu/nu mice (Charles River Laboratories, Wilmington, Mass.). When tumor grew to a specified size, treatment was started by every-other day×5 with 6 hr i.v.-infusion, unless otherwise indicated. Tumor volume was measured with calipers in three dimensions (length×width×height or width). Body-weight changes and lethality were monitored every other day.

[2] = Body-weight decrease and lethality in tumor-bearing nude mice
Protocol: as §1
Essential features of useful cancer therapeutic agent involve not only high efficiency against cancer but also low toxicity toward the host, especially toward vital organs or functions [i.e. wide therapeutic window or high therapeutic index (LD50/ED50)].
as §2

[3] = system: UL-3-C ovarian adenocarcinoma; assay: Tumor cell growth inhibition in vitro; type: cell-based, human
Protocol: (§3) The fresh medium containing each drug was replenished every 7-14 days. […] In each case ,the drug-exposed cells were resuspended in fresh media for a minimum of 4 days before the experiments for the cell-growth inhibition was carried out.
(§4) The cells were cultured at an initial density of 2-5×10^4 cells per ml. They were maintained in a 5% CO2-humidified atmosphere at 37° C. in RPMI mediun 1640 (GIBCO/BRL) containing penicillin (100 units/ml), streptomycin (100 μg/ml) (GIBCO/BRL), and 5% heat-inactivated fetal bovine serum. For solid tumor cells growing in a monolayer (such as MCF-7/Adr), cytotoxicitiy of the drug was determined in 96-well microtiter plates by using the sulforhodamine B method as described by Skehan et al (23) for measuring the cellular protein content. For cells that were grown in suspension (such as CCRF-CEM and its sublines), cytotoxicitiy was measured by using the 2,-3-bis(2-methoxy-4-nitro-5-sulfophenyl)-5carboxanilide)-2H terazodium hydroxide (XTT)-microculture tetrazonium method (24) in duplicate in 96-well microtiter plates. For both methods, the absorbance of each well was measured with a microplate reader (EL-340, Bio-Tek, Burlington, Vt.). Each run entailed six or seven concentrations of the tested drugs. Dose-effect relationship data were analyzed with the median-effect plot (25) by using a previously described computer program (26).

[4] = system: CCRF-CEM/VBL100 (vinblastine-resistant subline); assay: Tumor cell growth inhibition in vitro (XTT, 72 h); type: cell-based, human; conditions: for cross-resistance (fold of resistance vs parent cell line): CCRF-CEM/VBL100 vs CCRF-CEM
Protocol: as §3, §4

[5] = system: MX-1 mammary carcinoma xenograft
UL-3-B/Taxol = assay: cells; conditions: Homo sapiens
[6] = system: CCRF-CEM/Taxol (paclitaxel-resistant subline); assay: Tumor cell growth inhibition in vitro (XTT, 72 h); type: cell-based, human; conditions: for cross-resistance (fold of resistance vs parent cell line): CCRF-CEM/Taxol vs CCRF-CEM; for IC50: Homo sapiens, CCRF-CEM, 72 h
Protocol: as §3, §4

[7] = system: CCRF-CEM/VM1 (teniposide-resistant subline); assay: Tumor cell growth inhibition in vitro (XTT, 72 h); type: cell-based, human; conditions: for cross-resistance (fold of resistance vs parent cell line): CCRF-CEM/VM1 vs CCRF-CEM; for IC50: Homo sapiens
Protocol: as §3, §4

MCF-7/Adr = assay: Tumor cell growth inhibition in vitro; type: cell-based, human; conditions: for IC50: MCF-7/Adr; for cross-resistance (fold of resistance vs parent cell line): MCF-7/Adr vs MCF-7
Protocol: as §4, with “They were maintained in a 5% CO2-humidified atmosphere at 37° C. in RPMI mediun 1640 (GIBCO/BRL) containing penicillin (100 units/ml), streptomycin (100 μg/ml) (GIBCO/BRL), and 5% heat-inactivated fetal bovine serum.” left out

[8] = system: DC-3F hamster lung fibroblasts; assay: Tumor cell growth inhibition in vitro; type: cell-based
Protocol: as §3, §4

[9] = K562, i.v. infusion (dEpoF vs 15-azaEpoB)

Structure (SMILES): CC(=O)O[C@H]1C(=O)[C@@]2(C)[C@H]([C@H](OC(=O)c3ccccc3)[C@]3(O)C[C@H](OC(=O)[C@H](O)[C@@H](NC(=O)c4ccccc4)c4ccccc4)C(C)=C1C3(C)C)[C@]1(OC(C)=O)CO[C@@H]1C[C@@H]2O [Taxol, paclitaxel, reference compound]
- Lowest Average Tumor Size (T/C) ([1]; K562, dEpoB 30 mg/kg): 0.18
- Tumor Disappearance ([1]; K562, dEpoB 30 mg/kg): 0/6
- body-weight decrease without lethality at the doses used ([2]; mouse, in vivo): 10-20%
- IC50 [3]: 1.5 nM
- IC50 ([3]; Homo sapiens): 1.6 nM
- solubility (physchem; water): ~600 µg/mL (≈ 0.703 mM)
- IC50 ([4]; CCRF-CEM/VBL100, 72 h): 5170 nM

Structure (SMILES): C/C(=C\c1csc(C)n1)C1C[C@@H]2O[C@]2(C)CCC[C@H](C)[C@H](O)[C@@H](C)C(=O)C(C)(C)C(O)CC(=O)N1 (stereo partly drawn) [aza-EpoB, aza-epothilone B]
- therapeutic effect on tumor growth ([1]; K562, aza-EpoB 6 mg/kg Q2D×6, 6 h-i.v. infusion (FIG. 34)): inhibited tumor growth but did not lead to a reduction in the size of the tumor
- therapeutic effect on tumor growth ([1]; K562, aza-EpoB 6 mg/kg Q2D×6, 6 h-i.v. infusion (FIG. 34), listed as azaEpoB): strongly suppressed tumor growth but did not shrink the tumor
- Therapeutic Effect Rank Order [1, 9]: dEpoF>>>15-azaEpoB
- drop in body-weight that led to lethality ([2]; nude mice): 14-20%
- mice died of toxicity on day 22 ([5]; MX-1-bearing mice, azaEpoB 6 mg/kg): one out of five
- Therapeutic Effect Rank Order ([5]; mouse, in vivo, iv): dEpoB>>>15-azaEpoB
- IC50 (UL-3-B/Taxol): 15 nM
- IC50 ([3]; Homo sapiens, read-out: IC50): 1.2 nM
- cross-resistance (fold of resistance vs parent cell line) [6]: 81.4 x
- IC50 ([6]; read-out: IC50): 171 nM
- cross-resistance (fold of resistance vs parent cell line) [7]: 18.6 x
- cross-resistance (fold of resistance vs parent cell line) ([7]; listed as 15-aza-EpoB): 118.6 x
- IC50 ([7]; CCRF-CEM/VM1, 72 h, read-out: IC50): 39 nM
- cross-resistance (fold of resistance vs parent cell line) [4]: 1423 x
- IC50 ([4]; Homo sapiens, CCRF-CEM/VBL100, 72 h, read-out: IC50): 2990 nM
- IC50 (MCF-7/Adr; Homo sapiens, NCI/ADR-RES, read-out: IC50): 11.8 nM
- cross-resistance (fold of resistance vs parent cell line) (MCF-7/Adr): 2.7 x
- IC50 ([8]; Mesocricetus auratus, DC3F, read-out: IC50): 8.7 nM

Structure (SMILES): C/C1=C/C[C@@H](/C(C)=C/c2csc(C)n2)OC(=O)C[C@H](O)C(C)(C)C(=O)[C@H](C)[C@@H](O)[C@@H](C)CCC1 [dEpoB, 12,13-desoxyepothilone B]
- Therapeutic Effect Rank Order ([1]; K562, i.v. infusion, FIG. 3 & 4): dEpoB>>>VBL> Taxol> Adriamycin
- therapeutic effect of single course ([1]; K562, single course Q2D×3, dEpoB 30 mg/kg (FIG. 37)): disappearance of K562 xenografts for four weeks
- therapeutic effect ([1]; K562, dEpoB 30 mg/kg, Taxol 20 mg/kg 6 hr i.v. infusion, Adriamycin 3 mg/kg, vinblastine 2.5 mg/kg i.v., every other day from day 20 (FIG. 36)): Complete remission
- Lowest Average Tumor Size (T/C) ([1]; K562, dEpoB 30 mg/kg): 0
- Tumor Disappearance ([1]; K562, dEpoB 30 mg/kg): 5/5
- tumor size after treatment ([1]; K562 tumor as large as 880 mm^3 after paclitaxel, then dEpoB 30 mg/kg (Q2D×3)×3): less than 20 mm^3
- body-weight decrease without lethality at the doses used ([2]; dEpoB 30-40 mg/kg, paclitaxel 15-24 mg/kg, 6-hr i.v. infusion): 10-20%
- drop in body-weight during treatment without causing lethality ([2]; nude mice): 23-29%
- tumor disappearance on day 22 ([5]; MX-1, dEpoB 30 mg/kg Q2D×6 (day 10-20) then Q2D×5 (day 26-34)): ⅕
- tumor disappearance on day 38 ([5]; MX-1, dEpoB 30 mg/kg Q2D×6 then Q2D×5): ⅖
- body-weight gain during day 36-40 ([5]; MX-1-bearing mice, after dEpoB second cycle): about 2 gm
- body-weight decrease on day 22 ([5]; MX-1-bearing mice, dEpoB 30 mg/kg Q2D (day 10-20)): about 3.5 gm
- body-weight drop on day 36 ([5]; MX-1-bearing mice, dEpoB second cycle Q2D×5 (day 26-34)): about 4.1 gm
- Lowest Average Tumor Size (T/C) ([5]; mouse, in vivo): 0
- Therapeutic Effect Rank Order ([5]; mouse, in vivo): dEpoB>Adriamycin>Taxol
- Tumor Disappearance ([5]; mouse, in vivo): 5/5
- Therapeutic Effect Rank Order ([5]; mouse, in vivo, ip): dEpoB>Camptothecin>Taxol>VBL, EpoB
- IC50 (UL-3-B/Taxol): 7 nM
- IC50 ([3]; Homo sapiens, read-out: IC50): 2.1 nM
- solubility (physchem): ~10000 µg/mL (≈ 20.3 mM)
- cross-resistance (fold of resistance vs parent cell line) [6]: 1.7 x and 1.2 x
- IC50 [6]: 16.2 nM
- cross-resistance (fold of resistance vs parent cell line) [7]: 1.5 x
- IC50 ([7]; CCRF-CEM, 72 h): 14 nM
- IC50 ([4]; Homo sapiens, CCRF-CEM, 72 h): 17 nM
- IC50 (MCF-7/Adr; Homo sapiens, NCI/ADR-RES): 7.15 nM
- IC50 (MCF-7/Adr): 13.3 nM
- IC50 [8]: 2.5 nM
- IC50 ([8]; Mesocricetus auratus, DC3F): 1.9 nM

Structure (SMILES): C/C1=C/C[C@@H](/C(C)=C/c2csc(CO)n2)OC(=O)C[C@H](O)C(C)(C)C(=O)[C@H](C)[C@@H](O)[C@@H](C)CCC1 [dEpoF, 12,13-Desoxyepothilone F]
- tumor free mice on day 76 ([1]; K562, aza-EpoB 6 mg/kg then dEpoF 30 mg/kg, n=3): all three mice were tumor free
- therapeutic effect on tumor growth ([1]; K562, dEpoF 30 mg/kg Q2D×6 in the same mice after aza-EpoB, tumor near 500 mm^3 (FIG. 34)): readily induced reduction in the size of the tumor to the point of remission; also recorded: The tumor mass eventually disappeared three weeks later
- Therapeutic Effect Rank Order [1, 9]: dEpoF>>>15-azaEpoB
- drop in body-weight during treatment without causing lethality ([2]; nude mice): 23-29%
- therapeutic effect on tumor growth ([5]; MX-1, dEpoF 15 mg/kg Q2D×5, 6 hr-i.v. infusion): tumor growth was partially suppressed
- tumor disappearance (tumor free mice) ([5]; MX-1, dEpoF 30 mg/kg Q2D×5, 6 hr-i.v. infusion): three out of five
- IC50 (UL-3-B/Taxol): 6.7 nM
- IC50 ([3]; Homo sapiens, read-out: IC50): 4.8 nM
- solubility (physchem): ~25000 µg/mL (≈ 49.2 mM)
- cross-resistance (fold of resistance vs parent cell line) [6]: 2.0 x
- IC50 [6]: 5.3 nM
- cross-resistance (fold of resistance vs parent cell line) [7]: 1.8 x
- IC50 ([7]; CCRF-CEM, 72 h): 4.9 nM
- cross-resistance (fold of resistance vs parent cell line) [4]: 17.4 x
- IC50 ([4]; Homo sapiens, CCRF-CEM, 72 h): 47 nM
- IC50 (MCF-7/Adr; Homo sapiens, NCI/ADR-RES): 9.7 nM
- IC50 (MCF-7/Adr): 18.6 nM
- cross-resistance (fold of resistance vs parent cell line) (MCF-7/Adr): 1.4 x and 1.9 x
